Read-outs that look alike come from different tables or passages of the source.
How the values were obtained:
[1] = Plasma and CSF pharmacokinetics from NCT03522129; assay type: in vivo, human; details: single dose of CT1812 (560 mg); for AUC(0-t) / Cmax / Kp: 560 mg; for Kp: CSF/plasma
[2] = system: amyloid β oligomers and monomers; details: animal models and preclinical data; cited from earlier work
[3] = system: Aβ 40 and 42 monomers; assay: Aβ 40 and 42 monomers in patient CSF after single dose (NCT03522129); assay type: in vivo, human; details: single dose 560 mg, similar in all three patients including placebo
Protocol: Methods: A Phase 2 clinical trial (NCT03522129) was conducted enrolling patients with mild-to-moderate Alzheimer's disease (MMSE 18-26) into the Randomized, double-blind, placebo-controlled, single dose administration of CT1812 followed by hourly sampling of lumbar CSF via indwelling catheter for 24 hours. The primary objective of the study was to evaluate target engagement of CT1812 treatment by measuring the displacement of Aβ oligomers into cerebrospinal fluid (CSF). The was quantified by a measuring change from the baseline CSF Aβ oligomer concentration after dosing with CT1812 versus placebo. Microimmunoelectrodes (Yuede et al 2016) coated with oligomer-specific antibody, A11 were placed in CSF samples of Alzheimer's disease patient samples to detect soluble Aβ after a single dose of CT1812 (560 mg) or placebo. […] Percent change from baseline in Aβ 40 and 42 monomers were similar in all three patients (<50% increase). […] CSF Aβ oligomer levels were fit to a linear regression and the significance of the slope difference from zero was determined for each patient (FIG. 4 (measured by microimmunoelectrodes); FIG. 5 (measured by Western Blot)).

[4] = system: Aβ oligomers; assay: Native Western Blot (82E1 antibody) measurement of Aβ oligomers in patient CSF (NCT03522129); assay type: in vivo, human
[5] = system: amyloid β monomer; details: human subjects treated for 28 days; see 62/976,325; cited from earlier work
[6] = system: Aβ oligomers; assay: Microimmunoelectrode (MIE) measurement of Aβ oligomers in patient CSF after single dose (NCT03522129); assay type: in vivo, human
Protocol: Methods: A Phase 2 clinical trial (NCT03522129) was conducted enrolling patients with mild-to-moderate Alzheimer's disease (MMSE 18-26) into the Randomized, double-blind, placebo-controlled, single dose administration of CT1812 followed by hourly sampling of lumbar CSF via indwelling catheter for 24 hours. The primary objective of the study was to evaluate target engagement of CT1812 treatment by measuring the displacement of Aβ oligomers into cerebrospinal fluid (CSF). The was quantified by a measuring change from the baseline CSF Aβ oligomer concentration after dosing with CT1812 versus placebo. Microimmunoelectrodes (Yuede et al 2016) coated with oligomer-specific antibody, A11 were placed in CSF samples of Alzheimer's disease patient samples to detect soluble Aβ after a single dose of CT1812 (560 mg) or placebo. Results: Microimmunoelectrode (MIE) measurements of Aβ oligomers in CSF show a drug-dependent rise in Aβ oligomers over time.

[7] = system: Patients; assay: ADAS-COG score after 185 days of treatment versus placebo; assay type: in vivo, human; details: day 185, treated at least 6 months (185 days), FIG. 7
Source text: Patients treated for at least 6 months (185 days) with CT1812 were compared with patients who received placebo.

SMILES: CC(C)(C)Oc1cc(CCC(C)(C)N2Cc3ccc(S(C)(=O)=O)cc3C2)ccc1O [CT1812]
- tmax ([1]; Plasma, Subject 90003): 2.00 h
- AUC(0-t) ([1]; human, CSF, Subject 90001): 120 ng·h/mL
- Cmax ([1]; human, CSF, Subject 90001): 24.9 ng/mL
- AUC(0-t) ([1]; human, CSF, Subject 90003): 46.4 ng·h/mL
- Cmax ([1]; human, CSF, Subject 90003): 7.27 ng/mL
- Kp ([1]; human, Subject 90001, read-out: CSF/Plasma Ratio based on AUC0-last): 0.0381
- Kp ([1]; human, Subject 90001, read-out: CSF/Plasma Ratio based on Cmax): 0.0358
- Kp ([1]; human, Subject 90003, read-out: CSF/Plasma Ratio based on AUC0-last): 0.0384
- Kp ([1]; human, Subject 90003, read-out: CSF/Plasma Ratio based on Cmax): 0.0291
- AUC(0-t) ([1]; human, plasma, Subject 90001): 3160 ng·h/mL
- Cmax ([1]; human, plasma, Subject 90001): 695 ng/mL
- AUC(0-t) ([1]; human, plasma, Subject 90003): 1210 ng·h/mL
- Cmax ([1]; human, plasma, Subject 90003): 250 ng/mL
- tmax ([1]; human, CSF, Subject 90003, read-out: tmax): 3 h
- amyloid β oligomer concentration in cerebral spinal fluid and brain interstitial fluid [2]: selectively displace oligomers and increase their concentration
- concentration of amyloid β monomers [2]: had not effect
- Percent change from baseline in Aβ 40 and 42 monomers (increase) [3]: < 50%
- linear slope of CSF Aβ oligomer level over time (Western Blot) ([4]; Patients 1 and 3, p<0.001 for each patient, R^2=0.9808 and 0.3997, placebo slope not different from zero): significantly non-zero
- Aβ oligomer levels in CSF over time (Western Blot) ([4]; single dose 560 mg, hourly lumbar CSF for 24 hours, not seen in placebo patient): apparent increase with time
- amyloid β monomer concentration in the cerebral spinal fluid or interstitial fluid [5]: no change
- linear slope of CSF Aβ oligomer level over time (MIE) ([6]; Patients 1 and 3, p<0.001 for each patient, R^2=0.7720 and 0.7898, placebo slope not different from zero): significantly non-zero
- Aβ oligomer levels in CSF over time (MIE) ([6]; single dose 560 mg, hourly lumbar CSF for 24 hours, mild-to-moderate Alzheimer's disease patients, not seen in placebo patient): apparent increase with time
- Aβ oligomer increase, percent change from baseline in CSF ([6]; two treated patients, single dose 560 mg, no increase in placebo-treated patient, FIG. 4 (MIE), FIG. 5 (Western Blot)): more than 200%
- difference in Alzheimer's Disease Assessment Score (ADAS-COG) between treated and untreated patients [7]: three-point difference

— patent US20230098944A1, “METHOD OF DECREASING AMYLOID BETA MONOMER LEVELS IN PATIENTS WITH COGNITIVE DECLINE” (Cognition Therapeutics, Inc., priority 2020, published 2023)
